The record followed here is patent US20200071380A1, “COMBINATION THERAPIES COMPRISING SIRP ALPHA-BASED CHIMERIC PROTEINS” (Shattuck Labs, Inc., priority 2018, published 2020).

Data set [1] deals with macrophages co-cultured with Toledo lymphoma cells. Briefly: qRT-PCR of macrophages sorted from Toledo lymphoma co-cultures. It is filed as cell-based, human. The note with it: qRT-PCR on macrophages isolated by FACS from Toledo co-cultures. The method, then:
FIG. 8D: Macrophage:Toledo lymphoma co-cultures were harvested 2 hours into phagocytosis assays in the presence of rituximab ([…]), SIRPα-Fc-CD40L ([…]), or the combination of both agents. Macrophages were isolated by CD11b+FACS, RNA was prepared, cDNA synthesized, and gene expression (IFNa1, IFNb1, CD80, and CD86) assessed by qRT-PCR. Fold change was calculated using DDCT and values obtained from the housekeeping gene ACTB, and the corresponding values from untreated samples. […] After 2 hours, co-cultures were isolated from tissue culture vessels and were stained with a fluorescently conjugated CD11b antibody to discriminate macrophages. Cells were then assessed by flow cytometry for the co-localization of fluorescent signal from both cells types. […] After 24-hours type I interferon induced luminescence was assessed using a luminometer. The maximum luminescence (RLU) from each experiment was set to 1, and all other samples were normalized accordingly. […]
RNA was prepared from macrophages isolated using fluorescent activated cell sorting (FACS) from SIRPα-Fc-CD40L/Rituximab treated co-cultures macrophages and Toledo lymphoma cells. The RNA was assessed by gRT-PCR for expression of IFNα1 and IFNβ1, and the macrophage activation markers CD80 and CD86.
Background: In qPCR the cycle at which signal appears reflects the starting amount.

The subject of another data set is splenic dendritic cells. The experiment in a line: In vivo splenic dendritic cell activation. Also on record: species or system mice. As to conditions: versus antibody treated groups. As for the experimental part: For each panel, the samples are (left to right): untreated, sheep RBCs, αCD47 (MIAP301), αSIRPα (P84), mSIRPα-Fc-CD40L, mSIRPα-Fc-CD40L (24 Hrs), and αCD47 (MIAP301) (24 hrs). FIG. 9B is a quantitation of in vivo dendritic cell activation corresponding to FIG. 9A. Shown is the absolute percent of CD4+ and CD8+ dendritic cells; also gated on CD11c and DC1R2. In FIG. 9B, for each panel, the samples are (left to right): untreated, sheep RBCs, αCD47 (MIAP301), αSIRPα (P84), SIRPα-Fc-CD40L (150 μg), SIRPα-Fc-CD40L (300 μg), SIRPα-Fc-CD40L (300 μg) (24 Hrs), and αCD47 (MIAP301) (24 hrs).
An in vivo assay to examine SIRPα/CD47 function in mice was describe in Yi et al., “Splenic Dendritic Cells Survey Red Blood Cells for Missing Self-CD47 to Trigger Adaptive Immune Responses. Immunity. 2015;43(4):764-75) (the contents of which is incorporated by reference in its entirety). This assay detects the activation status of splenic dendritic cells in response to SIRPa/CD47 inhibitors or to infused sheep red blood cells (RBC).
After 6 or 24 hours, mice were euthanized and their spleens excised, dissociated, and assessed by flow cytometry for populations of activated CD4+ dendritic cells (DCs) (FIG. 9A, left panel) or CD8+dendritic cells (FIG. 9A, right panel); both populations of dendritic cells were also positive for MHC II (I-Ab), CD11c, and DC1R2.

Data set [2] concerns low EGFR-expressing Chronic myeloid leukemia (CML) cell line (K562). The experiment in a line: Macrophage engulfment of K562 cells. The format is cell-based, human. As to conditions: K562, negative control cell line.
The test system of data set [3] is low Her2-expressing breast cancer cell line (MCF7). Briefly: Macrophage engulfment of MCF7 cells. It is filed as cell-based, human. As to conditions: HER2LOW cell line MCF7.
The test system of data set [4] is human donor red blood cells (RBCs). Briefly: In vitro hemolysis assay, human erythrocytes. The format is cell-based. The method, then:
FIG. 22B is a graph showing RBCs and test agents that were incubated at 37° C. for 24 hours and then the media was assessed at OD490 for changes in absorbance due to hemoglobin being released from lysing RBCs. […] FIG. 22D are graphs showing that peripheral blood was isolated from mice receiving three IP doses (300 μg) of the murine SIRPα-Fc-CD40L surrogate (arrows). Cell populations were assessed by flow cytometry and included CD20+ B cells, CD110+, CD4+/CD11c+, and CD8+/CD11c+ dendritic cells.
(§1) However, the in vitro systems used to test this question have significant limitations, including a complete lack of macrophages in the test system.

The test system of data set [5] is cynomolgus macaque erythrocytes. The experiment in a line: In vitro hemolysis assay, cynomolgus macaque erythrocytes. The format is cell-based.
Source text: as §1

“SIRPα-Fc-CD40L: Generic name of the SIRPα ECD-Fc-CD40L ECD chimeric protein; human or murine version depending on the test system”: in data set [1], the “macrophage activation (CD80, CD86) and expression of type I interferon genes (IFNα1, IFNβ1)” value was “induced macrophage activation and the expression of type I interferon genes”. In addition, the “proportion of overall splenic DCs” value in the data set on splenic dendritic cells is given as “higher proportion of overall splenic DCs than was observed in the antibody treated groups”. Further, in data set [2], the phagocytic activity entry is reported as “no phagocytic activity”. The phagocytosis entry in data set [3] is reported as “demonstrated monotherapy activity”. Also, the hemolysis in vitro result in data set [4] and in data set [5] was “did not reveal evidence of hemolysis” each time.
